Test [1] concerns the target T1, S. aureus TrmD (Staphylococcus aureus, UniProt Q2FZ43).
T1 construct: made in house
T1 sequence (Q2FZ43 1-245): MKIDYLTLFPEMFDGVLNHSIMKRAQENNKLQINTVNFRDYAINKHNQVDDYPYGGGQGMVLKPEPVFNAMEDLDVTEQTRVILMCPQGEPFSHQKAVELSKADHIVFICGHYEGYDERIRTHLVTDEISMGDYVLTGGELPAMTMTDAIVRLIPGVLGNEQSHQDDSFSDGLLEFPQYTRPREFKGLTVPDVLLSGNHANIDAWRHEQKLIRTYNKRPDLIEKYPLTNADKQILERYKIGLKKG
The experiment in a line: S. aureus TrmD enzymatic split aptamer MST assay. The test is classed as biochemical. The settings on record: 500 µM of hit compound, Fig. 5D.
Procedure: DNMT2 & S. aureus TrmD: 100 mM Tris-HCl, pH 8, 100 mM NH4OAc, 0.1 mM EDTA, 10 mM MgCl2, 10 mM DTT. For TrmD: 50 nM TrmD, 2 µM SAM, 1 µM tRNA^Leu.
For MTase assay detection by MST, enzyme reaction mixtures with a total volume of 10 µL per single treatment condition were prepared and incubated for the desired reaction times. Inhibitors were added from corresponding DMSO stocks to a final DMSO concentration of max. 5%. Afterward, reactions were quenched at a given reaction time by the addition of 1 µL sodium dodecyl sulfate (SDS, solution, 3% in water) per 10 µL reaction mixture and mixed well by pipetting. Subsequently, 1 µL of a 10× aptamer-containing detection master mix (200 mM Tris, pH 8.5, 200 mM MgCl2, 3 M NaCl, 10 mM urea, 0.2% Brij, 500 nM aptaSAH1, 500 nM aptaSAH2) was added to the quenched MTase reaction and incubated for 1 h at room temperature. […]

Test [2] deals with T2, DNMT2 (Homo sapiens, UniProt O14717).
T2 construct: made in house
T2 sequence (O14717 1-391): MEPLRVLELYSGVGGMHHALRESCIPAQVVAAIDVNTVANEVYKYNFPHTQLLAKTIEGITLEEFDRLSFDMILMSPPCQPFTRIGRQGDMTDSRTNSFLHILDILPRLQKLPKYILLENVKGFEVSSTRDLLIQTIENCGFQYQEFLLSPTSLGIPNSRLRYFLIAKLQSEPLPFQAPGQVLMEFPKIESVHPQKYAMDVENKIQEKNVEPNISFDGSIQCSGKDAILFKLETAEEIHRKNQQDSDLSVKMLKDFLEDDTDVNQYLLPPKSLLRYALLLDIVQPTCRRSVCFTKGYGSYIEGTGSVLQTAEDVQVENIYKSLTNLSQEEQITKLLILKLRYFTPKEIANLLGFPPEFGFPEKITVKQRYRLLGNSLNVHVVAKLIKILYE
The experiment in a line: DNMT2 fluorescence polarization (FP) FTAD displacement assay. The test is classed as binding. The protocol: Fluorescence polarization assays were conducted with a similar sample composition as described for FTAD-MST assays as described previously. Triplicates (50 µL) were prepared in black 96-well half-area plates (Greiner) and measured using a Spark 10 M plate reader (Tecan) equipped with polarization filters coupled to a monochromator setup (FTAD: λex = 480 nm, λem = 530 nm). Polarization values (in mP) were calculated from polarization-specific parallel and orthogonal fluorescence intensities according to the Tecan in-built calculation routine.
Reversibility of alexidine binding to DNMT2 was evaluated with a modified FP-assay setup. Briefly, reaction mixtures containing alexidine were prepared in black 96-well half-area plates, and after FP measurement, the volume of one well (50 µL) was collected and applied to a Zeba™ Spin Desalting Column (7 K MWCO) while 5 µL of a 10x DNMT2 buffer solution (500 mM HEPES, 1.5 M NaCl, 10 mM dithiothreitol (DTT), 1% PEG-8000, 0.5% polysorbate-20, pH 7.4) was placed in the collection tube attached to the SEC column. This procedure separated alexidine and restored the initial composition of the DNMT2 assay solution.
Kinetic FP assays were performed to assess the time-dependent inactivation of DNMT2 treated with covalent inhibitors. Briefly, samples contained 2 µM DNMT2, 100 nM FTAD probe, and 1.3% DMSO in DNMT2 MST buffer. Inhibitors were added from DMSO stocks. Negative inhibition control was performed by mock treatment with DMSO. Reactions were initiated by the addition of the Cpd 11 (adamantanyl-acryloylurea) and monitored for 120 min at 25 °C in a Tecan Spark 10 M plate reader (FTAD: λex = 480 nm, λem = 530 nm) The irreversible inhibition kinetics were analyzed as described previously[35],[36].
For orientation: Polarisation of emitted light reports the rotation of a fluorescent probe.

Test [3] deals with T3, NSUN2 (Homo sapiens, UniProt Q08J23).
T3 construct: made in house
The experiment in a line: NSUN2 enzymatic split aptamer MST assay (selectivity panel). It counts as biochemical. As to conditions: 500 µM of hit compound, Fig. 5D. From the text: Next, we investigated the target selectivity of all hit compounds by inhibition experiments using the MTases characterized in this study (DNMT2, METTL3/14, TrmD, and NSUN2) as a selectivity panel. […] While Cpd3 (alexidine) could be identified as a DNMT2 inhibitor during MST- and FP- experiments, the ligand’s hydrophobic nature raised the concern this compound might be an aggregator of DNMT2. To exclude this possibility, we investigated the reversibility of alexidine binding using the FP displacement assay and separation of the alexidine ligand by small-scale size-exclusion chromatography (SEC)[34].
NSUN2: 50 mM Tris-HCl, pH 7.5, 5 mM EDTA, 5 mM MgCl2, 1.5 mM DTT. 200 nM NSUN2, 1 µM SAM, 250 ng/µL tRNA (total from E. coli). […]
MST experiments were carried out in at least technical triplicates using a Monolith NT.115 instrument (NanoTemper Technologies) using Monolith standard capillaries and the blue excitation laser setup. […] General settings were applied for all MST experiments as follows: manual temperature control: 25 °C, fluorescence measurement before MST: 4 s, MST (IR laser) on: 20 s, fluorescence after MST: 2 s, delay: 25 s. The laser power was adjusted to optimize the signal-to-noise ratio and the fluorescence signal. […] MST measurements were analyzed using the NT analysis software (version 1.5.41) and exported for statistical analysis and plotting in GraphPad Prism 7.01.

“Also recorded” adds a separate entry of the source.

T3 sequence (Q08J23 whole entry, species assumed): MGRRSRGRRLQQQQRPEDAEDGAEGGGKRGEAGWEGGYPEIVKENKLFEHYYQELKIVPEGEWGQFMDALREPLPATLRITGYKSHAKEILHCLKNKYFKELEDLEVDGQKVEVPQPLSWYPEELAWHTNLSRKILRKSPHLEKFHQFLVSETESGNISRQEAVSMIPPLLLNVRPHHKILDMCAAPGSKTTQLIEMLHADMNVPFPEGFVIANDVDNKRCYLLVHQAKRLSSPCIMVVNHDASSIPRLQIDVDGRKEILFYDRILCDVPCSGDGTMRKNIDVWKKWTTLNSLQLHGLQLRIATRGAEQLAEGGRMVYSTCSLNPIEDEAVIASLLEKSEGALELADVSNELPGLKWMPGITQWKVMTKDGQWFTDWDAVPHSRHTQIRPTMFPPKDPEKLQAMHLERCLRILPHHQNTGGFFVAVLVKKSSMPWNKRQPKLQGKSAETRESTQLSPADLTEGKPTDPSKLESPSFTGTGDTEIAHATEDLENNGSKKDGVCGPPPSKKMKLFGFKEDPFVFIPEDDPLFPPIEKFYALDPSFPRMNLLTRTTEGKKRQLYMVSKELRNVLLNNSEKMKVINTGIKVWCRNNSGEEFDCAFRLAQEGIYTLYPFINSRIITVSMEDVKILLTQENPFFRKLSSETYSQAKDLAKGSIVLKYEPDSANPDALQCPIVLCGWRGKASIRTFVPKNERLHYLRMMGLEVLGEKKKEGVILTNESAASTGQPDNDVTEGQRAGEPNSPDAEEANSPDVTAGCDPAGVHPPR

`C=CC(=O)NC(=O)NC12CC3CC(CC(C3)C1)C2` [Cpd 11, 1-(adamantan-1-yl)-3-(prop-2-enoyl)urea]: in test [1], the “inhibition of TrmD (selectivity panel)” value is “did not inhibit”. Besides, the “displacement of FTAD tracer / binding to SAH-binding site” value in test [2] (FP library screening with FTAD tracer) is on record as “binding to the SAH-binding site; also recorded: displaced the FP-probe FTAD effectively”. For the same compound, the “time dependence of FTAD displacement” value in test [2] (kinetic FP assay) is on record as “time-dependent DNMT2 inhibition; also recorded: time-dependent displacement of the FTAD FP-tracer”. For the same compound, in test [2] (kinetic FP assay, kobs vs. [I], 120 min at 25 °C), the inactivation rate constant (kinact) is 0.00285 s⁻¹. Also, the “inhibition of NSUN2 (selectivity panel)” value in test [3] is reported as “did not inhibit”.

The kinact is the rate constant of inactivation at saturating inhibitor.

The values are drawn from publication PMC11790956, “A microscale thermophoresis-based enzymatic RNA methyltransferase assay enables the discovery of DNMT2 inhibitors” (Communications Chemistry, 2025).
